Measured values published in paper PMC9785202, “Changes in Disposition of Ezetimibe and Its Active Metabolites Induced by Impaired Hepatic Function: The Influence of Enzyme and Transporter Activities” (Pharmaceutics, 2022).
Where two headings read alike, the source gives them in different places. Marks after values point to notes of the source that are not given here. One block for each molecule: values may come before it.

Tests used:
[1] = molecular target: T1, OATP1B3 (Homo sapiens, UniProt Q9NPD5); experiment: Inhibition of OATP1B3-mediated uptake in OATP1B3-transfected HEK293 cells by bile acids and rifampicin
T1 sequence (Q9NPD5 1-702): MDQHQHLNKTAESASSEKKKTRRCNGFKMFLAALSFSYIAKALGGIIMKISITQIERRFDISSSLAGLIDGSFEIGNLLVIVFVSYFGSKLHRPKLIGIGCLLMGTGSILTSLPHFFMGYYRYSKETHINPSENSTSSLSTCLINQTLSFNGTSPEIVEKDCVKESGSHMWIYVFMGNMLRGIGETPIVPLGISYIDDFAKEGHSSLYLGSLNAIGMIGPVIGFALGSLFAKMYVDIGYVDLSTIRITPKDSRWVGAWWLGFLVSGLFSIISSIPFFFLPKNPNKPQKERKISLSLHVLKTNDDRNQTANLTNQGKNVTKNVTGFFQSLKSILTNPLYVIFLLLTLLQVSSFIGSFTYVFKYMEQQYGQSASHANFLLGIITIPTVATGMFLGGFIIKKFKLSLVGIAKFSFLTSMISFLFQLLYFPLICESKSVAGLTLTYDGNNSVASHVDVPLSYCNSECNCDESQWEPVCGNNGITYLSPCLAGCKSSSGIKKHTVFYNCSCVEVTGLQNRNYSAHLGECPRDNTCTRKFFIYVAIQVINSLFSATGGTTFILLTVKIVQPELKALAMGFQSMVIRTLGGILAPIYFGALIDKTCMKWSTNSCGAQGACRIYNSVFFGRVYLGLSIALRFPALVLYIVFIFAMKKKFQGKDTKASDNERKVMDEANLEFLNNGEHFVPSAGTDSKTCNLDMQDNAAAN

[2] = CCl4-induced hepatic failure rat model: liver index and serum ALT, AST, AKP; format: in vivo, Sprague–Dawley (SD) rats
Experimental: All animal studies were carried out according to the Guide for the Care and Use of Laboratory Animals of the Shanghai Institute of Materia Medica, Chinese Academy of Sciences. Male Sprague–Dawley (SD) rats weighing 180 to 220 g were randomized into two groups. The CCl4-induced model group was administered an intraperitoneal injection of CCl4 (20% in corn oil) at a dose of 2.5 mL/kg three times a week for 8 weeks. The control group was treated intraperitoneally with the same volume of corn oil at the same time intervals. Blood samples were collected and centrifuged at 11,600 g for 5 min to obtain serum samples for the determination of serum ALT, AST, and AKP.
Serum ALT, AST, and AKP were measured using the corresponding assay kits following the manufacturer’s instructions. Tissues fixed in 4% paraformaldehyde were embedded in paraffin, cut into slices with a 3 μm thickness, and stained with hematoxylin and eosin (H&E).

[3] = Pharmacokinetics after intravenous or oral administration of 10 mg/kg EZE to control and CCl4-induced rats; format: in vivo; conditions: for AUC(0-t) / Cmax / Tmax / half-life: Sprague-Dawley, rat, plasma, 10 mg/kg
Experimental: Animals were fasted for 12 h with free access to water before the experiments. EZE was administered orally (prepared in 0.5% carboxymethylcellulose sodium) or intravenously (dissolved in 10% dimethyl sulfoxide, 10% tween-80, and 80% sterile H2O) to CCl4-induced rats (n = 5) and control rats (n = 5) at 10 mg/kg. Blood samples were collected from the retro-orbital venous plexus before administration (0 h), at 5, 15, and 30 min, and at 1, 2, 4, 6, 8, 12, 24, and 48 h after administration in tubes containing EDTA-2K. Plasma samples were harvested by centrifugation at 11,600 g for 5 min at 4 °C and then stored at −80 °C until further analysis.
A 25.0 μL aliquot of each sample and 25.0 μL of internal standard (50.0 ng/mL EZE-d4) were mixed with 100 μL of acetonitrile. After the samples were vortexed and centrifugated at 2250 g for 15 min, the supernatants were used to measure EZE and its metabolites by LC-MS/MS.
WinNonlin version 6.1 (Pharsight Corp., Cary, NC, USA) was used to calculate the pharmacokinetic parameters in a non-compartmental model. Statistical comparisons between the two groups were evaluated using a Student’s two-tailed unpaired t-test or the nonparametric Mann–Whitney test in GraphPad Prism (version 8.0, GraphPad Software Inc, SanDiego, CA, USA). A value of p < 0.05 was considered significant. All data were presented as the mean ± S.D. (n ≥ 3).

[4] = for Autosampler stability (4°C, 24 h), RE / Post-extraction stability (room temperature 3 h), RE / Freeze-thaw stability (−20°C, three cycles), RE / Short-term stability (room temperature 3 h), RE: n = 6; for Freeze-thaw stability (−20°C, three cycles), RE / Short-term stability (room temperature 3 h), RE: rat plasma
Experimental: The instrument parameters were as follows: ion spray voltage, −4500 V; source temperature, 550 °C; nebulizer gas, 60 psi; heater gas, 60 psi; and curtain gas, 40 psi. […] Data were acquired and processed with the Analyst 1.6.3 software (Applied Biosystems). The standard curve ranges were 1.00 to 1000 ng/mL for EZE, 3.00 to 3000 ng/mL for EZE-Ph, and 1.00 to 1000 ng/mL for EZE-Hy in plasma.
Summary of the stability of ezetimibe and its metabolites in rat plasma (n = 6).

[5] = test system: rat primary hepatocytes; experiment: Inhibition of EZE-Ph uptake into rat primary hepatocytes by bile acids and rifampicin; conditions: inhibitor 200 µmol/L, 10 μM EZE-Ph, 10 min
Experimental: Rat primary hepatocytes were isolated from male SD rats as previously described [34]. Fresh rat hepatocytes (120,000 per well) were cultured in Williams’ E medium (containing 0.1 μM dexamethasone, 5% fetal bovine serum, 1% penicillin G/streptomycin, 1% GlutaMAX-I, and 1% insulin–transferrin–selenium) on collagen I-coated 48-well plates. Rat hepatocytes cultured for 4 h under a carbogen atmosphere were directly used for uptake assays.
The hepatocytes were rinsed three times with HBSS (37 °C) and equilibrated in HBSS for 10 min. […] After 10 min of incubation, cells were quickly washed three times with ice-cold HBSS and then lysed by the addition of 300 μL of purified water. The protein content was measured using the BCA protein assay kit. EZE and EZE-Ph were analyzed by LC-MS/MS.
The rates of substrate uptake were normalized using the protein contents of cell lysates.

[6] = substrate: O=C(O)C1OC(Oc2ccc([C@@H]3[C@@H](CC[C@H](O)c4ccc(F)cc4)C(=O)N3c3ccc(F)cc3)cc2)C(O)C(O)C1O; experiment: Uptake of EZE-Ph into OATP2B1-transfected HEK293 cells; format: in vitro ADME, human; conditions: other: OATP2B1 HEK293, uptake time 5 min; 37.0 °C
Experimental: (§1) The kinetic parameters and the half inhibitory concentration (IC50) were calculated using GraphPad Prism. […] The intrinsic clearance (CLint) was calculated as CLint = Vmax/Km.

[7] = substrate: O=C(O)C1OC(Oc2ccc([C@@H]3[C@@H](CC[C@H](O)c4ccc(F)cc4)C(=O)N3c3ccc(F)cc3)cc2)C(O)C(O)C1O; experiment: Uptake of EZE-Ph into OATP1B1-transfected HEK293 cells; format: in vitro ADME, human; conditions: other: OATP1B1 HEK293, uptake time 5 min; 37.0 °C
Experimental: as §1

[8] = CCl4-induced rats vs control rats
[9] = serum, CCl4-induced rats, n = 16
[10] = iv, i.v. 10 mg/kg EZE, CCl4-induced rats
[11] = iv, i.v. 10 mg/kg EZE, control rats
[12] = po, p.o. 10 mg/kg EZE, CCl4-induced rats
[13] = po, p.o. 10 mg/kg EZE, control rats
[14] = oral administration of 10 mg/kg EZE

Molecule: C[C@H](CCC(=O)O)[C@H]1CC[C@H]2[C@@H]3[C@H](O)C[C@@H]4C[C@H](O)CC[C@]4(C)[C@H]3C[C@H](O)[C@]12C [CA, cholic acid]
IC50 [1]: 121 µM

Molecule: ClC(Cl)(Cl)Cl [CCl4, Carbon tetrachloride]
serum AKP, fold higher than in control rats [2, 8]: 3.86 fold
serum ALT, fold higher than in control rats [2, 8]: 8.62 fold
serum AST, fold higher than in control rats [2, 8]: 5.76 fold
Liver weight/body weight ([2]; CCl4-induced rats, 8 weeks of treatment, n = 16): 37.9 ± 5.9 ^c
AKP [2, 9]: 9887 ± 1633 ^d U/L
ALT [2, 9]: 112 ± 33 ^d U/L
AST [2, 9]: 125 ± 34 ^d U/L

IC50 [1]: 8.92 µM
Molecule: C[C@H](CCC(=O)O)[C@H]1CC[C@H]2[C@@H]3[C@H](O)C[C@@H]4C[C@H](O)CC[C@]4(C)[C@H]3CC[C@]12C [CDCA, chenodeoxycholic acid]

AUC(0-t) [3, 10]: 4250 ± 2050 ng·h/mL
Cmax [3, 10]: 146 ± 42 ng/mL
Tmax [3, 10]: 11.2 ± 7.6 h
half-life [3, 10]: 15.3 ± 2.4 h
AUC(0-t) [3, 11]: 992 ± 392 ng·h/mL
Cmax [3, 11]: 36.9 ± 9.6 ng/mL
Tmax [3, 11]: 16.8 ± 6.6 h
half-life [3, 11]: 16.1 ± 7.6 h
AUC(0-t) [3, 12]: 1170 ± 418 ng·h/mL
Cmax [3, 12]: 38.1 ± 10.1 ng/mL
Tmax [3, 12]: 14.4 ± 5.4 h
AUC(0-t) [3, 13]: 463 ± 160 ng·h/mL
Cmax [3, 13]: 24.6 ± 9.9 ng/mL
Tmax [3, 13]: 12 h
AUC0–t, fold higher in CCl4-induced rats than in control rats ([3]; intravenous injection of 10 mg/kg EZE): 4.3 fold
AUC0–t, fold higher in CCl4-induced rats than in control rats [3, 14]: 2.5 fold
share in plasma relative to the main circulating component EZE-Ph [3, 14]: 11%
Autosampler stability (4°C, 24 h), RE ([4]; HQC (800/2400/800 ng/ml)): 9.0%
Post-extraction stability (room temperature 3 h), RE ([4]; HQC (800/2400/800 ng/ml)): 5.2%
Autosampler stability (4°C, 24 h), RE ([4]; LQC (3.00/9.00/3.00 ng/ml)): 7.9%
Post-extraction stability (room temperature 3 h), RE ([4]; LQC (3.00/9.00/3.00 ng/ml)): 8.9%
stability in rat plasma under the test conditions ([4]; LQC and HQC samples, short-term, post-extraction, auto-sampler, three freeze/thaw cycles): stable
Freeze-thaw stability (−20°C, three cycles), RE ([4]; HQC (800/2400/800 ng/ml)): 2.0%
Short-term stability (room temperature 3 h), RE ([4]; HQC (800/2400/800 ng/ml)): -3.6%
Freeze-thaw stability (−20°C, three cycles), RE ([4]; LQC (3.00/9.00/3.00 ng/ml)): -0.1%
Short-term stability (room temperature 3 h), RE ([4]; LQC (EZE/EZE-Ph/EZE-Hy 3.00/9.00/3.00 ng/ml)): -6.9%
stability in blood ([4]; room temperature for 2 h): stable
Molecule: O=C(O)[C@H]1O[C@@H](O[C@@H](CC[C@H]2C(=O)N(c3ccc(F)cc3)[C@@H]2c2ccc(O)cc2)c2ccc(F)cc2)[C@H](O)[C@@H](O)[C@@H]1O [EZE-Hy, ezetimibe hydroxy β-D-glucuronide]

IC50 [1]: 15.1 µM
Molecule: CC(CCC(=O)NCC(=O)O)C1CCC2C3C(O)CC4CC(O)CCC4(C)C3CCC12C (stereo not drawn) [GCDCA, glycochenodeoxycholic acid]

IC50 [1]: 46.1 µM
Molecule: C[C@H](CCC(=O)NCC(=O)O)[C@H]1CC[C@H]2[C@@H]3[C@@H](O)C[C@@H]4C[C@H](O)CC[C@]4(C)[C@H]3CC[C@]12C [GUDCA, glycoursodeoxycholic acid]

IC50 [1]: 26 µM
Molecule: C[C@H](CCC(=O)NCCS(=O)(=O)O)[C@H]1CC[C@H]2[C@@H]3[C@@H](O)C[C@@H]4C[C@H](O)CC[C@]4(C)[C@H]3CC[C@]12C [TUDCA, tauroursodeoxycholic acid]

IC50 [1]: 25.5 µM
Molecule: C[C@H](CCC(=O)O)[C@H]1CC[C@H]2[C@@H]3[C@@H](O)C[C@@H]4C[C@H](O)CC[C@]4(C)[C@H]3CC[C@]12C [UDCA, ursodeoxycholic acid]

Molecule: CO[C@H]1/C=C/O[C@@]2(C)Oc3c(C)c(O)c4c(O)c(c(/C=N/N5CCN(C)CC5)c(O)c4c3C2=O)NC(=O)/C(C)=C\C=C\[C@H](C)[C@H](O)[C@@H](C)[C@@H](O)[C@@H](C)[C@H](OC(C)=O)[C@@H]1C [rifampicin, reference compound]
EZE-Ph uptake by rat hepatocytes in the presence of inhibitor [5]: 12.0%
uptake of estradiol-17β-glucuronide in OATP1B3-expressing HEK293 cells in the presence of inhibitor ([1]; inhibitor 200 μM, substrate estradiol-17β-glucuronide): 3.89%

B1: OATP2B1 (Homo sapiens) (protein)
chain: MGPRIGPAGEVPQVPDKETKATMGTENTPGGKASPDPQDVRPSVFHNIKLFVLCHSLLQLAQLMISGYLKSSISTVEKRFGLSSQTSGLLASFNEVGNTALIVFVSYFGSRVHRPRMIGYGAILVALAGLLMTLPHFISEPYRYDNTSPEDMPQDFKASLCLPTTSAPASAPSNGNCSSYTETQHLSVVGIMFVAQTLLGVGGVPIQPFGISYIDDFAHNSNSPLYLGILFAVTMMGPGLAFGLGSLMLRLYVDINQMPEGGISLTIKDPRWVGAWWLGFLIAAGAVALAAIPYFFFPKEMPKEKRELQFRRKVLAVTDSPARKGKDSPSKQSPGESTKKQDGLVQIAPNLTVIQFIKVFPRVLLQTLRHPIFLLVVLSQVCLSSMAAGMATFLPKFLERQFSITASYANLLIGCLSFPSVIVGIVVGGVLVKRLHLGPVGCGALCLLGMLLCLFFSLPLFFIGCSSHQIAGITHQTSAHPGLELSPSCMEACSCPLDGFNPVCDPSTRVEYITPCHAGCSSWVVQDALDNSQVFYTNCSCVVEGNPVLAGSCDSTCSHLVVPFLLLVSLGSALACLTHTPSFMLILRGVKKEDKTLAVGIQFMFLRILAWMPSPVIHGSAIDTTCVHWALSCGRRAVCRYYNNDLLRNRFIGLQFFFKTGSVICFALVLAVLRQQDKEARTKESRSSPAVEQQLLVSGPGKKPEDSRV
notes: host or cells: HEK293
Km [6]: 119 µM
Vmax [6]: 6.69e-05 µmol/min/mg
Vmax/Km [6]: 0.56 µL/min/mg

B2: OATP1B1 (Homo sapiens) (protein)
chain: MDQNQHLNKTAEAQPSENKKTRYCNGLKMFLAALSLSFIAKTLGAIIMKSSIIHIERRFEISSSLVGFIDGSFEIGNLLVIVFVSYFGSKLHRPKLIGIGCFIMGIGGVLTALPHFFMGYYRYSKETNINSSENSTSTLSTCLINQILSLNRASPEIVGKGCLKESGSYMWIYVFMGNMLRGIGETPIVPLGLSYIDDFAKEGHSSLYLGILNAIAMIGPIIGFTLGSLFSKMYVDIGYVDLSTIRITPTDSRWVGAWWLNFLVSGLFSIISSIPFFFLPQTPNKPQKERKASLSLHVLETNDEKDQTANLTNQGKNITKNVTGFFQSFKSILTNPLYVMFVLLTLLQVSSYIGAFTYVFKYVEQQYGQPSSKANILLGVITIPIFASGMFLGGYIIKKFKLNTVGIAKFSCFTAVMSLSFYLLYFFILCENKSVAGLTMTYDGNNPVTSHRDVPLSYCNSDCNCDESQWEPVCGNNGITYISPCLAGCKSSSGNKKPIVFYNCSCLEVTGLQNRNYSAHLGECPRDDACTRKFYFFVAIQVLNLFFSALGGTSHVMLIVKIVQPELKSLALGFHSMVIRALGGILAPIYFGALIDTTCIKWSTNNCGTRGSCRTYNSTSFSRVYLGLSSMLRVSSLVLYIILIYAMKKKYQEKDINASENGSVMDEANLESLNKNKHFVPSAGADSETHC
notes: host or cells: HEK293
Km [7]: 91.5 µM
Vmax [7]: 5.17e-05 µmol/min/mg
Vmax/Km [7]: 0.56 µL/min/mg
